Legend:
[1] = system: primary human fibroblasts derived from IPF patients (LL29 cells); assay: Inhibition of fibrotic process: αSMA staining in TGF-β1-treated primary human fibroblasts from IPF patients (LL29 cells); assay type: cell-based; conditions: Fibroblast, 96 h, LL29 cells treated with TGF-β1 (20 ng/mL), 4 days, 11-point dose-response from 10 μM to 1.87 nM, read-out: Inhibition of fibrosis EC50
Source text: The above synthesized compounds were screened using primary human fibroblasts (derived from IPF patients) treated with TGF-β1 to determine their ability to inhibit the fibrotic process.
Primary human fibroblasts derived from IPF patients (LL29 cells) [^1Xiaoqiu Liu, et. al., “Fibrotic Lung Fibroblasts Show Blunted Inhibition by cAMP Due to Deficient cAMP Response Element-Binding Protein Phosphorylation”, Journal of Pharmacology and Experimental Therapeutics (2005), 315(2), 678-687; ^2Watts, K. L., et. al., “RhoA signaling modulates cyclin D1 expression in human lung fibroblasts; implications for idiopathic pulmonary fibrosis”, Respiratory Research (2006), 7(1), 88] were obtained from American Type Culture Collection (ATCC) and expanded in F12 medium supplemented with 15% Fetal Bovine Serum and Penicillin/Streptomycin.
Each compound was dissolved in DMSO as a 10 mM stock and used to prepare compound source plates. Serial dilution (1:2, 11-point dose-response curves from 10 μM to 1.87 nM) and compound transfer was performed using the ECHO 550 (Labcyte, Sunnyvale, Calif.) into 384-well clear bottom assay plates (Greiner Bio-One) with appropriate DMSO backfill for a final DMSO concentration of 0.1%. LL29 cells were plated at 1,500 cells/well in 80 μl/well F12 medium supplemented with 1% Fetal Bovine Serum. One hour after addition of the cells, TGF-β1 (Peprotech; 20 ng/mL) was added to the plates to induce fibrosis (ref. 1 and 2 above). Wells treated with TGF-β1 and containing DMSO were used as controls. Cells were incubated at 37° C. and 5% CO2 for 4 days. Following incubation for 4 days, SYTOX green nucleic acid stain (Life Technologies [Thermo Fisher Scientific]) was added to the wells at a final concentration of 1 uM and incubated at room temperature for 30 min. Cells were then fixed using 4% formaldehyde (Electron Microscopy Sciences), washed 3 times with PBS followed by blocking and permeabilization using 3% Bovine Serum Albumin (BSA; Sigma) and 0.3% Triton X-100 (Sigma) in PBS. Cells were then stained with antibody specific to α-smooth muscle actin (αSMA; Abcam) (ref. 1 and 2 above) in 3% Bovine Serum Albumin (BSA; Sigma) and 0.3% Triton X-100 (Sigma) in PBS, and incubated overnight at 4° C. Cells were then washed 3 times with PBS, followed by incubation with Alexa Flor-647 conjugated secondary antibody (Life Technologies [Thermo Fisher Scientific]) and DAPI at room temperature for 1 hour. Cells were then washed 3 times with PBS and plates were sealed for imaging. αSMA staining was imaged by excitation at 630 nm and emission at 665 nm and quantified using the Compartmental Analysis program on the CellInsight CX5 (Thermo Scientific). Dead or apoptotic cells were excluded from analysis based on positive SYTOX green staining. % of total cells positive for αSMA were counted in each well and normalized to the average of 11 wells treated with TGF-β1 on the same plate using Dotmatics' Studies Software. The normalized averages (fold change over untreated) of 3 replicate wells for each compound concentration were used to create dose-responses curves and EC50 values were calculated using non-linear regression curve fit in the Dotmatics' Studies Software. The EC50 values are reported.

[2] = system: Wnt activity (Wnt-responsive Sp5 promoter-luciferase reporter in SW480 cells); assay: Wnt activity screening assay: Sp5-Luc reporter gene in SW480 colon carcinoma cells; assay type: cell-based; conditions: Homo sapiens
Source text: The screening assay for Wnt activity is described as follows. Reporter cell lines can be generated by stably transducing cancer cell lines (e.g., colon cancer) or primary cells (e.g., IEC-6 intestinal cells) with a lentiviral construct that includes a Wnt-responsive promoter driving expression of the firefly luciferase gene.
SW480 colon carcinoma cells were transduced with a lentiviral vector expressing luciferase with a human Sp5 promoter consisting of a sequence of eight TCF/LEF binding sites. SW480 cells stably expressing the Sp5-Luc reporter gene and a hygromycin resistance gene were selected by treatment with 150 μg/ml of hygromycin for 7 days. These stably transduced SW480 cells were expanded in cell culture and used for all further screening activities. For Sp5-Luc reporter gene assays, the cells were plated at 10,000 cells/well in 96-well plates with growth medium containing 10% fetal calf serum and incubated overnight at 37° C. and 5% CO2. Each compound was dissolved in DMSO as a 10 mM stock in standard j-vials and used to prepare compound source plates in dose-response format with 3-fold serial dilutions and a 10 mM top concentration. Compound transfer from serially diluted source plates to assay plates containing the cells was accomplished using a pintool (Multimek 96, Beckman equipped with V&P Scientific FP1S50H pins) based liquid handling protocol. This protocol used a slotted pin to transfer 50 nl of compound from a source plate well to an assay plate well containing 50 μl of cells in growth medium. […] Control wells received 50 nl of DMSO treatment for normalization and calculating IC50 values. The treated cells were incubated at 37° C. and 5% CO2 for an additional forty-two hours. Following incubation, the growth medium was removed and 50 μl of BrightGlo luminescence reagent (Promega) was added to each well of the 96-well assay plates. The plates were placed on an orbital shaker for 5 min and then luminescence was quantified on the Victor3 (Perkin Elmer) plate reader. Readings were normalized to DMSO only treated cells, and normalized activities were utilized for IC50 calculations using the dose-response log (inhibitor) vs. response-variable slope (four parameters) nonlinear regression feature available in GraphPad Prism 5.0 or 6.0.

SMILES	IC50 [2] [µM]	EC50 [1] [µM]
CC(C)(C)C(=O)Nc1cncc(-c2cc3c(-c4nc5c(-c6cccc(F)c6)cncc5[nH]4)n[nH]c3cn2)c1 [Compound 8, N-(5-(3-(7-(3-Fluorophenyl)-3H-imidazo[4,5-c]pyridin-2-yl)-1H-pyrazolo[3,4-c]pyridin-5-yl)pyridin-3-yl)pivalamide]	0.0411	0.047
CCCCC(=O)Nc1cncc(-c2cc3c(-c4nc5c(-c6cccc(F)c6)cncc5[nH]4)n[nH]c3cn2)c1 [Compound 18, N-(5-(3-(7-(3-Fluorophenyl)-3H-imidazo[4,5-c]pyridin-2-yl)-1H-pyrazolo[3,4-c]pyridin-5-yl)pyridin-3-yl)pentanamide]	0.0294	0.143
CC(C)(C)C(=O)Nc1cncc(-c2cc3c(-c4nc5c(-c6ccccc6F)cncc5[nH]4)n[nH]c3cn2)c1 [Compound 60, N-(5-(3-(7-(2-Fluorophenyl)-3H-imidazo[4,5-c]pyridin-2-yl)-1H-pyrazolo[3,4-c]pyridin-5-yl)pyridin-3-yl)pivalamide]	0.047	≥ 9.99
CCCC(=O)Nc1cncc(-c2cc3c(-c4nc5c(-c6ccccc6F)cncc5[nH]4)n[nH]c3cn2)c1 [Compound 69, N-(5-(3-(7-(2-Fluorophenyl)-3H-imidazo[4,5-c]pyridin-2-yl)-1H-pyrazolo[3,4-c]pyridin-5-yl)pyridin-3-yl)butyramide]	0.0703	0.044
O=C(Nc1cncc(-c2cc3c(-c4nc5c(-c6ccccc6F)cncc5[nH]4)n[nH]c3cn2)c1)C1CCC1 [Compound 72, N-(5-(3-(7-(2-Fluorophenyl)-3H-imidazo[4,5-c]pyridin-2-yl)-1H-pyrazolo[3,4-c]pyridin-5-yl)pyridin-3-yl)cyclobutanecarboxamide]	0.144	≤ 0.009
O=C(Nc1cncc(-c2cc3c(-c4nc5c(-c6ccccc6F)cncc5[nH]4)n[nH]c3cn2)c1)C1CCCC1 [Compound 73, N-(5-(3-(7-(2-Fluorophenyl)-3H-imidazo[4,5-c]pyridin-2-yl)-1H-pyrazolo[3,4-c]pyridin-5-yl)pyridin-3-yl)cyclopentanecarboxamide]	0.155	4.33
CCC(=O)Nc1cncc(-c2cc3c(-c4nc5c(-c6cccnc6)cncc5[nH]4)n[nH]c3cn2)c1 [Compound 79, N-(5-(3-(7-(Pyridin-3-yl)-3H-imidazo[4,5-c]pyridin-2-yl)-1H-pyrazolo[3,4-c]pyridin-5-yl)pyridin-3-yl)propionamide]	> 10	0.018
c1cncc(-c2cc3c(-c4nc5c(-c6cccnc6)cncc5[nH]4)n[nH]c3cn2)c1 [Compound 82, 5-(Pyridin-3-yl)-3-(7-(pyridin-3-yl)-3H-imidazo[4,5-c]pyridin-2-yl)-1H-pyrazolo[3,4-c]pyridine]	> 10	≥ 9.99
c1ccc(CNCc2cncc(-c3cc4c(-c5nc6c(-c7cccnc7)cncc6[nH]5)n[nH]c4cn3)c2)cc1 [Compound 101, N-Benzyl-1-(5-(3-(7-(pyridin-3-yl)-3H-imidazo[4,5-c]pyridin-2-yl)-1H-pyrazolo[3,4-c]pyridin-5-yl)pyridin-3-yl)methanamine]	0.294	≥ 9.99

Now from value to compound, other results behind:

IC50 [2] [µM]	SMILES	EC50 [1] [µM]
0.0718	CN(C)c1cncc(-c2cc3c(-c4nc5c(-c6cccc(F)c6)cncc5[nH]4)n[nH]c3cn2)c1 [Compound 7, 5-(3-(7-(3-Fluorophenyl)-3H-imidazo[4,5-c]pyridin-2-yl)-1H-pyrazolo[3,4-c]pyridin-5-yl)-N,N-dimethylpyridin-3-amine]	≤ 0.009
0.0801	CN(C)Cc1cncc(-c2cc3c(-c4nc5c(-c6cccc(F)c6)cncc5[nH]4)n[nH]c3cn2)c1 [Compound 13, 1-(5-(3-(7-(3-Fluorophenyl)-3H-imidazo[4,5-c]pyridin-2-yl)-1H-pyrazolo[3,4-c]pyridin-5-yl)pyridin-3-yl)-N,N-dimethylmethanamine]	≤ 0.009
0.0311	Fc1cccc(-c2cncc3[nH]c(-c4n[nH]c5cnc(-c6cncc(CN7CCC(F)(F)C7)c6)cc45)nc23)c1 [Compound 25, 5-(5-((3,3-Difluoropyrrolidin-1-yl)methyl)pyridin-3-yl)-3-(7-(3-fluorophenyl)-3H-imidazo[4,5-c]pyridin-2-yl)-1H-pyrazolo[3,4-c]pyridine]	≤ 0.009
1.06	Fc1ccc(-c2cncc3[nH]c(-c4n[nH]c5cnc(-c6cncc(CN7CCCC7)c6)cc45)nc23)cc1 [Compound 40, 3-(7-(4-Fluorophenyl)-3H-imidazo[4,5-c]pyridin-2-yl)-5-(5-(pyrrolidin-1-ylmethyl)pyridin-3-yl)-1H-pyrazolo[3,4-c]pyridine]	1.77
0.0767	CCCC(=O)Nc1cncc(-c2cc3c(-c4nc5c(-c6ccc(F)cc6)cncc5[nH]4)n[nH]c3cn2)c1 [Compound 43, N-(5-(3-(7-(4-Fluorophenyl)-3H-imidazo[4,5-c]pyridin-2-yl)-1H-pyrazolo[3,4-c]pyridin-5-yl)pyridin-3-yl)butyramide]	0.076
0.165	CCCCC(=O)Nc1cncc(-c2cc3c(-c4nc5c(-c6ccc(F)cc6)cncc5[nH]4)n[nH]c3cn2)c1 [Compound 44, N-(5-(3-(7-(4-Fluorophenyl)-3H-imidazo[4,5-c]pyridin-2-yl)-1H-pyrazolo[3,4-c]pyridin-5-yl)pyridin-3-yl)pentanamide]	0.075
0.179	Fc1ccc(-c2cncc3[nH]c(-c4n[nH]c5cnc(-c6cncnc6)cc45)nc23)cc1 [Compound 52, 3-(7-(4-Fluorophenyl)-3H-imidazo[4,5-c]pyridin-2-yl)-5-(pyrimidin-5-yl)-1H-pyrazolo[3,4-c]pyridine]	1.2
0.0704	Nc1cncc(-c2cc3c(-c4nc5c(-c6ccccc6F)cncc5[nH]4)n[nH]c3cn2)c1 [Compound 55, 5-(3-(7-(2-Fluorophenyl)-3H-imidazo[4,5-c]pyridin-2-yl)-1H-pyrazolo[3,4-c]pyridin-5-yl)pyridin-3-amine]	≤ 0.009
0.0402	CCNCc1cncc(-c2cc3c(-c4nc5c(-c6ccccc6F)cncc5[nH]4)n[nH]c3cn2)c1 [Compound 58, N-((5-(3-(7-(2-Fluorophenyl)-3H-imidazo[4,5-c]pyridin-2-yl)-1H-pyrazolo[3,4-c]pyridin-5-yl)pyridin-3-yl)methyl)ethanamine]	0.041
2.85	c1cncc(-c2cncc3[nH]c(-c4n[nH]c5cnc(-c6cncc(CN7CCCCC7)c6)cc45)nc23)c1 [Compound 93, 5-(5-(Piperidin-1-ylmethyl)pyridin-3-yl)-3-(7-(pyridin-3-yl)-3H-imidazo[4,5-c]pyridin-2-yl)-1H-pyrazolo[3,4-c]pyridine]	≥ 9.99
